Measured values published in paper PMC6778019 (Contraception, 2019).
Where two headings read alike, the source gives them in different places. Blank lines part the entries; values can stand above or below the compound they belong to.

Tests used:
[1] = cited from earlier work; for LNG AUC / EE AUC: COC EE 30 mcg / norgestrel 300 mcg
[2] = Steady-state pharmacokinetics of LNG and EE from day 21 of a COC cycle; assay type: in vivo, HIV-positive women; settings: for AUClast Change (%) / AUCτ Change (%) / CL Change (%) / Cmax Change (%) / Cmin Change (%) / T1/2 Change (%) / Tmax Change (%) / Vss Change (%): Ritonavir arm vs control arm; for concentration at 24 h: oral, concentration 24 h after the last dose; for concentration at 24 h / AUC / Cmax: mean±SD; for AUC: LNG AUCτ, AUC 24 h of the last dose of the 21-day cycle; for Cmax: last dose of the cycle
[3] = cited from earlier work
[4] = female, human, serum, po, T1/2, Ritonavir arm, half-life by NCA, median
[5] = COC users taking protease inhibitors

Compound: C#C[C@]1(O)CC[C@H]2[C@@H]3CCC4=CC(=O)CC[C@@H]4[C@H]3CC[C@@]21CC [LNG, levonorgestrel]
LNG AUC ([1]; women not taking nevirapine): 114 ng·mL/h | LNG AUC ([1]; women taking nevirapine): 147 ng·mL/h | AUClast Change (%) [2]: 32.0% | AUCτ Change (%) [2]: 32.6% | CL Change (%) [2]: −16.7% | Cmax Change (%) [2]: 27.0% | Cmin Change (%) [2]: 34.4% | T1/2 Change (%) [2]: 8.2% | Tmax Change (%) [2]: 33.3% | Vss Change (%) [2]: −13.2% | half-life ([2]; female, human, in vivo, po): 42.6 h | concentration at 24 h ([2]; female, human, serum, LNG Cmin, Control arm (n=10)): 3.7 ± 1.29 ng/mL | concentration at 24 h ([2]; female, human, serum, LNG Cmin, Ritonavir arm (n=5)): 4.97 ± 1.15 ng/mL | AUC ([2]; female, human, serum, po, Control arm (n=10)): 113 ± 37 ng·h/mL | AUC ([2]; female, human, serum, po, Ritonavir arm (n=5)): 150 ± 28 ng·h/mL | Cmax ([2]; female, human, serum, po, LNG Cmax, Control arm (n=10)): 7.62 ± 2.29 ng/mL | Cmax ([2]; female, human, serum, po, LNG Cmax, Ritonavir arm (n=5)): 9.68 ± 1.81 ng/mL | half-life [2, 4]: 46.2 h | increase in LNG exposure ([2]; women on ritonavir vs control): approximately 30%

AUClast Change (%) [2]: 18.2% | AUCτ Change (%) [2]: 21.8% | CL Change (%) [2]: −15.1% | Cmax Change (%) [2]: 33.7% | Cmin Change (%) [2]: 8.5% | T1/2 Change (%) [2]: 10.5% | Tmax Change (%) [2]: 0.0% | Vss Change (%) [2]: −24.1% | Tmax ([2]; Ritonavir arm, median (95% Confidence interval)): 1.0 (1.0,2.9) h | Vss ([2]; Ritonavir arm, volume at steady state by NCA, median (95% Confidence interval)): 475 (370,671) L | EE pharmacokinetic profiles, ritonavir vs control ([2]; comparison between groups): not different between groups | concentration at 24 h ([2]; female, human, serum, EE Cmin, Control arm (n=10)): 0.0492 ± 0.0141 ng/mL | concentration at 24 h ([2]; female, human, serum, EE Cmin, Ritonavir arm): 0.0533 ± 0.0147 ng/mL | Tmax ([2]; female, human, serum, po): 1 h | Cmax ([2]; female, human, serum, po, EE Cmax, Control arm (n=10)): 0.163 ± 0.0438 ng/mL | half-life ([2]; female, human, serum, po, T1/2, Control arm (n=10), half-life by NCA, median): 28.4 h | half-life [2, 4]: 31.3 h
Compound: C#C[C@]1(O)CC[C@H]2[C@@H]3CCc4cc(O)ccc4[C@H]3CC[C@@]21C [EE, ethinyl estradiol]
EE AUC ([1]; women not taking nevirapine): 1457 ng·mL/h | EE AUC ([1]; women taking nevirapine): 1384 ng·mL/h

Compound: C#CC1(O)CC[C@H]2[C@@H]3CCC4=CC(=O)CC[C@@H]4[C@H]3CC[C@@]21CC (stereo partly drawn) [norgestrel]
increase in norgestrel AUC ([1]; women taking ARV vs not taking ARV medication): approximately 30%

Compound: C#C[C@]1(O)CC[C@H]2[C@@H]3CCC4=CC(=O)CC[C@@H]4[C@H]3CC[C@@]21C [norethindrone]
decrease in norethindrone AUC [3, 5]: 18% | increase in AUC of norethindrone [3, 5]: 110% | increase in norethindrone AUC ([3]; norethindrone progestin-only pill, women using ritonavir): 50%
